These results are taken from PubChem BioAssay AID1391 (Sanford-Burnham Center for Chemical Genomics, 2008).

The assay concerns CSM14.1 cells, thapsigargin-induced p-p38/p38 MSD ELISA. Description: inhibition of thapsigargin-induced p38 phosphorylation, dose response, mechanism study for ER stress apoptosis inhibitor project, MSD ELISA, CSM14.1 cells (AID 1391). Particulars: at 10 µM (top of the series).

Regarding `COc1ccc(C2CC(=O)C3=C(C2)Nc2ccccc2NC3c2cccc(Oc3ccccc3)c2)cc1OC` (configuration not stated), the p-p38/p38 ratio, lower = inhibition is 1.86.
The value for `CC1(C)CC(=O)C2=C(C1)Nc1ccccc1NC2c1ccc(-c2ccccc2)cc1` (configuration not stated) was 1.47.
